{"source": "patent US11591341B2", "about": "(ALIGOS THERAPEUTICS, INC., priority 2019, dated 2023)", "note": "pEC50: −log10 of the molar value."}
{"tested_on": "HBV", "assay": "HBV-DNA Antiviral Assay Using HepG2.117 Cells (intracellular HBV DNA by qPCR)", "type": "cell-based, hepatitis B virus (genotype D)", "conditions": "Hepatitis B virus, HepG2.117", "method_in_brief": "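Endpoint: qPCR copy number of intracellular HBV DNA after 3-day compound exposure, with inhibition set relative to the 2% DMSO control. The cells were doxycycline-free HepG2.117 carrying a Tet-off genotype D genome, dosed at nine 4-fold dilutions. A duplicate plate gave ATP-based viability (CC50).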"}
{"smiles": "COc1ccc(-n2c(C(=O)NCc3ccccc3OC)c3n(c2=O)CCN(C(=O)c2ccc(Br)c(Cl)c2)C3)cc1", "note": "[Example 114, 7-(4-bromo-3-chloro-benzoyl)-2-(4-methoxyphenyl)-N-[(2-methoxyphenyl)methyl]-3-oxo-6,8-dihydro-5H-imidazo[1,5-a]pyrazine-1-carboxamide]", "pEC50": "6.30 to 7.00"}
{"smiles": "COc1ccc(CNC(=O)c2c3n(c(=O)n2-c2ccccc2)CCN(C(=O)c2ccc(Br)c(Cl)c2)C3)c(C)c1", "note": "[Example 39, 7-(4-bromo-3-chloro-benzoyl)-N-[(4-methoxy-2-methyl-phenyl)methyl]-3-oxo-2-phenyl-6,8-dihydro-5H-imidazo[1,5-a]pyrazine-1-carboxamide]", "pEC50": "6.30 to 7.00"}
{"smiles": "COc1ccc(-n2c(C(=O)NCc3ccccc3)c3n(c2=O)CCN(C(=O)c2ccc(Cl)c(Cl)c2)C3)c(F)c1", "note": "[Example 79, N-benzyl-7-(3,4-dichlorobenzoyl)-2-(2-fluoro-4-methoxy-phenyl)-3-oxo-6,8-dihydro-5H-imidazo[1,5-a]pyrazine-1-carboxamide]", "pEC50": "5.30 to 6.30"}
{"smiles": "COc1ccc(-n2c(C(=O)N[C@@H](C)c3ccccc3F)c3n(c2=O)CCN(C(=O)c2ccc(Br)c(Cl)c2)C3)cc1", "note": "(stereo in doubt) [Example 162, 7-(4-bromo-3-chloro-benzoyl)-2-(4-methoxyphenyl)-3-oxo-N-[rac-(1S)-1-(2-fluorophenyl)ethyl]-6,8-dihydro-5H-imidazo[1,5-a]pyrazine-1-carboxamide]", "pEC50": "6.30 to 7.00"}
{"smiles": "C[C@H](Oc1ccc([C@@H](C)NC(=O)c2c3n(c(=O)n2-c2ccc(OCC(F)(F)F)cc2)CCN(C(=O)c2ccc(Br)c(Cl)c2)C3)c(F)c1)C(N)=O", "note": "(stereo in doubt) [Example 360, 7-(4-bromo-3-chloro-benzoyl)-3-oxo-N-[rac-(1R)-1-[2-fluoro-4-[rac-(1S)-2-amino-1-methyl-2-oxo-ethoxy]phenyl]ethyl]-2-[4-(2,2,2-trifluoroethoxy)phenyl]-6,8-dihydro-5H-imidazo[1,5-a]pyrazine-1-carboxamide]", "pEC50": "5.30 to 6.30"}
{"smiles": "COc1ccc(-n2c(C(=O)NCc3cc(OC)cc(OC)c3)c3n(c2=O)CCN(C(=O)c2ccc(Br)c(Cl)c2)C3)cc1", "note": "[Example 153, 7-(4-bromo-3-chloro-benzoyl)-N-[(3,5-dimethoxyphenyl)methyl]-2-(4-methoxyphenyl)-3-oxo-6,8-dihydro-5H-imidazo[1,5-a]pyrazine-1-carboxamide]", "pEC50": "6.30 to 7.00"}
{"smiles": "C[C@H](NC(=O)c1c2n(c(=O)n1C)CCN(C(=O)c1ccc(Br)c(Cl)c1)C2)c1ccccc1", "note": "(stereo in doubt) [Example 112, 7-(4-bromo-3-chloro-benzoyl)-2-methyl-3-oxo-N-[rac-(1S)-1-phenylethyl]-6,8-dihydro-5H-imidazo[1,5-a]pyrazine-1-carboxamide]", "pEC50": "< 5.30"}
{"smiles": "COc1ccc(-n2c(C(=O)NCc3cccc4cccnc34)c3n(c2=O)CCN(C(=O)c2ccc(Br)c(Cl)c2)C3)cc1", "note": "[Example 166, 7-(4-bromo-3-chloro-benzoyl)-2-(4-methoxyphenyl)-3-oxo-N-(8-quinolylmethyl)-6,8-dihydro-5H-imidazo[1,5-a]pyrazine-1-carboxamide]", "pEC50": "6.30 to 7.00"}
{"smiles": "N#CCOc1ccc(-n2c(C(=O)NCc3ccccc3)c3n(c2=O)CCN(C(=O)c2ccc(Br)c(Cl)c2)C3)cc1", "note": "[Example 265, N-benzyl-7-(4-bromo-3-chloro-benozyl)-2-[4-(cyanomethoxy)phenyl]-3-oxo-6,8-dihydro-5H-imidazo[1,5-a]pyrazine-1-carboxamide]", "pEC50": "5.30 to 6.30"}
{"smiles": "O=C(c1ccc(Br)c(Cl)c1)N1CCn2c(c3n(c2=O)C[C@H](O)CN(Cc2ccccc2)C3=O)C1", "note": "(stereo in doubt) [Example 174, rac-(11R)-13-benzyl-4-(4-bromo-3-chloro-benzoyl)-11-hydroxy-4,7,9,13-tetrazatricyclo[7.5.0.0^2,7]tetradec-1-ene-8.14-dione]", "pEC50": "5.30 to 6.30"}
{"smiles": "C[C@H](NC(=O)c1c2n(c(=O)n1C1CC1)CCN(C(=O)c1ccc(Br)c(Cl)c1)C2)c1ccccc1", "note": "(stereo in doubt) [Example 190, 7-(4-bromo-3-chloro-benzoyl)-2-cyclopropyl-3-oxo-N-[rac-(1S)-1-phenylethyl]-6,8-dihydro-5H-imidazo[1,5-a]pyrazine-1-carboxamide]", "pEC50": "5.30 to 6.30"}
{"smiles": "C[C@H](NC(=O)c1c2n(c(=O)n1-c1ccc(OC3COC3)cc1)CCN(C(=O)c1ccc(Br)c(Cl)c1)C2)c1ccccc1", "note": "(stereo in doubt) [Example 169, 7-(4-bromo-3-chloro-benzoyl)-2-[4-(oxetan-3-yloxy)phenyl]-3-oxo-N-[rac-(1S)-1-phenylethyl]-6,8-dihydro-5H-imidazo[1,5-a]pyrazine-1-carboxamide]", "pEC50": "5.30 to 6.30"}
{"smiles": "O=C(NCc1ccccc1-c1cccnn1)c1c2n(c(=O)n1-c1ccc(OCC(F)(F)F)cc1)CCN(C(=O)c1ccc(Br)c(Cl)c1)C2", "note": "[Example 388, 7-(4-bromo-3-chloro-benzoyl)-3-oxo-N-[(2-pyridazin-3-ylphenyl)methyl]-2-[4-(2,2,2-trifluoroethoxy)phenyl]-6,8-dihydro-5H-imidazo[1,5-a]pyrazine-1-carboxamide]", "pEC50": "> 7.00"}
{"smiles": "COc1cccc(C)c1CNC(=O)c1c2n(c(=O)n1-c1ccc(OCC(F)(F)F)cc1)CCN(C(=O)c1ccc(Br)c(Cl)c1)C2", "note": "[Example 259, 7-(4-bromo-3-chloro-benzoyl)-N-[(2-methoxy-6-methyl-phenyl)methyl]-3-oxo-2-[4-(2,2,2-trifluoroethoxy)phenyl]-6,8-dihydro-5H-imidazo[1,5-a]pyrazine-1-carboxamide]", "pEC50": "6.30 to 7.00"}
{"smiles": "COc1ccc([C@@H](C)NC(=O)c2c3n(c(=O)n2-c2ccc(OC(C)C)cc2)CCN(C(=O)c2ccc(Br)c(Cl)c2)C3)c(F)c1", "note": "(stereo in doubt) [Example 245, 7-(4-bromo-3-chloro-benzoyl)-2-(4-isopropoxyphenyl)-3-oxo-N-[rac-(1R)-1-(2-fluoro-4-methoxy-phenyl)ethyl]-6,8-dihydro-5H-imidazo[1,5-a]pyrazine-1-carboxamide]", "pEC50": "> 7.00"}
{"smiles": "O=C(NCc1ccccc1-c1ccncn1)c1c2n(c(=O)n1-c1ccc(OCC(F)(F)F)cc1)CCN(C(=O)c1ccc(Br)c(Cl)c1)C2", "note": "[Example 423, 7-(4-bromo-3-chloro-benzoyl)-3-oxo-N-[(2-pyrimidin-4-ylphenyl)methyl]-2-[4-(2,2,2-trifluoroethoxy)phenyl]-6,8-dihydro-5H-imidazo[1,5-a]pyrazine-1-carboxamide]", "pEC50": "> 7.00"}
{"smiles": "CC(C)Oc1ccc(-n2c(C(=O)NCc3ccc(C(C)(C)O)cc3)c3n(c2=O)CCN(C(=O)c2ccc(Br)c(Cl)c2)C3)cc1", "note": "[Example 407, 7-(4-bromo-3-chloro-benzoyl)-N-[[4-(1-hydroxy-1-methyl-ethyl)phenyl]methyl]-2-(4-isopropoxyphenyl)-3-oxo-6,8-dihydro-5H-imidazo[1,5-a]pyrazine-1-carboxamide]", "pEC50": "> 7.00"}
{"smiles": "COc1ccc(-n2c(C(=O)N[C@@H](CO)c3ccccc3)c3n(c2=O)CCN(C(=O)c2ccc(Br)c(Cl)c2)C3)cc1", "note": "(racemic) [Example 144, 7-(4-bromo-3-chloro-benzoyl)-2-(4-methoxyphenyl)-3-oxo-N-[rac-(1R)-2-hydroxy-1-phenyl-ethyl]-6,8-dihydro-5H-imidazo[1,5-a]pyrazine-1-carboxamide]", "pEC50": "5.30 to 6.30"}
